The target of this experiment is T1, G9a (Homo sapiens, UniProt Q96KQ7).
T1 sequence (Q96KQ7 2-1210): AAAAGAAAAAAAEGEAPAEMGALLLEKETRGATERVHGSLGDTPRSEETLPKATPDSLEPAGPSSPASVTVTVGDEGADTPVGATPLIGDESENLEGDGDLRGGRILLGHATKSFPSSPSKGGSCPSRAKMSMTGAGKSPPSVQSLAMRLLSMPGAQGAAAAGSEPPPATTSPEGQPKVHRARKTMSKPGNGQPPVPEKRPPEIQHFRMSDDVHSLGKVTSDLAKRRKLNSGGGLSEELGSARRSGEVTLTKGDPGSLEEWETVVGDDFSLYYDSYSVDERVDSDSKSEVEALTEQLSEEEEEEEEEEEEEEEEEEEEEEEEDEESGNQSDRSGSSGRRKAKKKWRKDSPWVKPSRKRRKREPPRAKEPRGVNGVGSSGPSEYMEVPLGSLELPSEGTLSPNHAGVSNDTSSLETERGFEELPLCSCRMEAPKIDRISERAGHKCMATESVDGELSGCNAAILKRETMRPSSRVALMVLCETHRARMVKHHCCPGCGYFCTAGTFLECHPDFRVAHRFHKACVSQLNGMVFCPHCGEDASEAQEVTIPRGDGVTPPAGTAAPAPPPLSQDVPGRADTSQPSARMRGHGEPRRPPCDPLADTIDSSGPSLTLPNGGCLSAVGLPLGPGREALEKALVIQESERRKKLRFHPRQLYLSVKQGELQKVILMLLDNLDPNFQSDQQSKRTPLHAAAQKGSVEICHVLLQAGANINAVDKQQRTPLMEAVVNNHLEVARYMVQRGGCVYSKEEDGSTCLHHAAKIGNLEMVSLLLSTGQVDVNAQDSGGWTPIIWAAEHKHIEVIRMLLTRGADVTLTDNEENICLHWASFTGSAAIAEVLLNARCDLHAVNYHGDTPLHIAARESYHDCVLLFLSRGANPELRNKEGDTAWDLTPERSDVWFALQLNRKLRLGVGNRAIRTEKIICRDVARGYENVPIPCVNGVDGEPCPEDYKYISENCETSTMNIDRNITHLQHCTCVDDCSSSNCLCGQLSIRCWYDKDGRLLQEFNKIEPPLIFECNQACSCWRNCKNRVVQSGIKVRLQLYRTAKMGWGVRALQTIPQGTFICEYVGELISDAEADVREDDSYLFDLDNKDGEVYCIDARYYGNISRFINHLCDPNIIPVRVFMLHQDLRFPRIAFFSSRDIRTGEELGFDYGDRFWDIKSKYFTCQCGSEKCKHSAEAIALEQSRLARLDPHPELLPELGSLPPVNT
The experiment can be described thus: scintillation proximity assay of 3H-methyl transfer to histone peptide. The class given is biochemical.

`COc1cc2c(NC3CCN(CCCc4cn(CCOCCOCCOCCNC(=O)CCCC[C@H]5SC[C@H]6NC(=O)N[C@H]65)nn4)CC3)nc(C3CCCCC3)nc2cc1OCCCN1CCCC1` [compound 10, UNC0965] came in with an IC50 below 2.5 nM.

For the origin of these results see article PMC4005005 (ChemMedChem, 2014).
